Reference: US20250325534A1, “MICROBIOCIDAL TETRAHYDROISOQUINOLINE DERIVATIVES” (SYNGENTA CROP PROTECTION AG, priority 2021, published 2025)

Experiments:
Phaeosphaeria nodorum = Phaeosphaeria nodorum (Septoria nodorum) / wheat / leaf disc preventative (glume blotch); format: in vivo; conditions: Parastagonospora nodorum, foliar, inoculated 2 days after application
Experimental: Example B9: Phaeosphaeria nodorum (Septoria nodorum)/Wheat/Leaf Disc Preventative (Glume Blotch) Wheat leaf segments cv. Kanzler are placed on agar in a multiwell plate (24-well format) and sprayed with the formulated test compound diluted in water. The leaf disks are inoculated with a spore suspension of the fungus 2 days after application. The inoculated test leaf disks are incubated at 20° C. and 75% relative humidity under a light regime of 12 h light/12 h darkness in a climate cabinet and the activity of a compound is assessed as percent disease control compared to untreated when an appropriate level of disease damage appears in untreated check leaf disks (5-7 days after application).

[1] = tested on: Mycosphaerella graminicola; assay: Mycosphaerella graminicola (Septoria tritici) / liquid culture (Septoria blotch); format: cell-based; conditions: Zymoseptoria tritici, 96 h, photometrically 4-5 days after application, read-out: control of Mycosphaerella graminicola
In short: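 Growth inhibition measured by photometry 4-5 days post application, at 24° C incubation. Test compound supplied as DMSO solution; fungal conidia from cryostorage suspended directly in potato dextrose broth as inoculum.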

Mycosphaerella arachidis = Mycosphaerella arachidis (Cercospora arachidicola) / liquid culture (early leaf spot); format: cell-based; conditions: 96 h, photometrically 4-5 days after application, read-out: control of Mycosphaerella arachidis
In short: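 Photometric growth inhibition, read 4-5 days post-application at 24 °C, of Cercospora arachidicola spores suspended in potato dextrose broth and exposed to test compound delivered from DMSO solution.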

Monographella nivalis = Monographella nivalis (Microdochium nivale) / liquid culture (foot rot cereals); format: cell-based; conditions: 96 h, photometrically 4-5 days after application, read-out: control of Monographella nivalis
In short: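 Test compound, applied as a DMSO solution, was challenged with fungal spores suspended in potato dextrose broth; after 4-5 days at 24° C, photometric readout gave inhibition of growth.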

Alternaria solani = Alternaria solani / tomato / leaf disc (early blight); format: in vivo; conditions: foliar, inoculated 2 days after application, vs untreated control
Pyrenophora teres = Pyrenophora teres / barley / leaf disc preventative (net blotch); format: in vivo; conditions: foliar, inoculated 2 days after application
Experimental: Example B16: Pyrenophora teres/Barley/Leaf Disc Preventative (Net Blotch) Barley leaf segments cv. Hasso are placed on agar in a multiwell plate (24-well format) and sprayed with the formulated test compound diluted in water. The leaf segments are inoculated with a spore suspension of the fungus 2 days after application. The inoculated leaf segments are incubated at 20° C. and 65% relative humidity under a light regime of 12 h light/12 h darkness in a climate cabinet and the activity of a compound is assessed as disease control compared to untreated when an appropriate level of disease damage appears in untreated check leaf segments (5-7 days after application).

[2] = tested on: Blumeria graminis f. sp. tritici; assay: Blumeria graminis f. sp. tritici / wheat / leaf disc preventative (powdery mildew); format: in vivo; conditions: foliar, inoculated 1 day after application
Experimental: Example B7: Blumeria graminis f. Sp. Tritici (Erysiphe graminis f. Sp. Tritici)/Wheat/Leaf Disc Preventative (Powdery Mildew on Wheat) Wheat leaf segments cv. Kanzler are placed on agar in a multiwell plate (24-well format) and sprayed with the formulated test compound diluted in water. The leaf disks are inoculated by shaking powdery mildew infected plants above the test plates 1 day after application. The inoculated leaf disks are incubated at 20° C. and 60% relative humidity under a light regime of 24 h darkness followed by 12 h light/12 h darkness in a climate chamber and the activity of a compound is assessed as percent disease control compared to untreated when an appropriate level of disease damage appears on untreated check leaf segments (6-8 days after application).

Botryotinia fuckeliana = Botryotinia fuckeliana (Botrytis cinerea) / liquid culture (gray mould); format: cell-based; conditions: 72 h, growth inhibition photometrically 3-4 days after application, read-out: control of Botryotinia fuckeliana
In short: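 Botrytis cinerea conidia in Vogels nutrient broth added to test compound delivered in DMSO. Incubated at 24 °C; growth inhibition measured photometrically 3–4 days after application.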

Glomerella lagenarium = Glomerella lagenarium (Colletotrichum lagenarium) / liquid culture (anthracnose); format: cell-based; conditions: Colletotrichum orbiculare, 72 h, photometrically 3-4 days after application, read-out: control of Glomerella lagenarium
In short: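 Conidia in potato dextrose broth added to test compound delivered as DMSO solution in microtiter plates; incubation at 24° C. Growth inhibition read photometrically 3-4 days after application.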

C[C@H]1c2ccccc2[C@@](C)(c2cnn(C)c2)CN1C(=O)c1cc(-c2ccccc2)on1 [Compound P-2, [(1S,4S)-1,4-dimethyl-4-(1-methylpyrazol-4-yl)-1,3-dihydroisoquinolin-2-yl]-(5-phenylisoxazol-3-yl)methanone]
≥ 80%: pest or weed control at 200 ppm (Phaeosphaeria nodorum) | inhibition of growth at 20 ppm [1] | inhibition of growth at 20 ppm (Mycosphaerella arachidis) | inhibition of growth at 20 ppm (Monographella nivalis) | pest or weed control at 200 ppm (Alternaria solani) | pest or weed control at 200 ppm (Pyrenophora teres)

CC1c2ccccc2C(C)(c2cnn(C)c2F)CN1C(=O)c1cc(-c2ccc(F)cc2F)on1 (stereo not shown) [Compound P-11, [5-(2,4-difluorophenyl)isoxazol-3-yl]-[4-(5-fluoro-1-methyl-pyrazol-4-yl)-1,4-dimethyl-1,3-dihydroisoquinolin-2-yl]methanone]
≥ 80%: pest or weed control at 200 ppm (Phaeosphaeria nodorum) | pest or weed control at 200 ppm [2] | inhibition of growth at 20 ppm [1] | inhibition of growth at 20 ppm (Mycosphaerella arachidis) | inhibition of growth at 20 ppm (Monographella nivalis) | pest or weed control at 200 ppm (Alternaria solani) | inhibition of growth at 20 ppm (Botryotinia fuckeliana) | inhibition of growth at 20 ppm (Glomerella lagenarium)

Cn1ncc(C2CN(C(=O)c3cc(-c4ccc(F)cc4F)on3)Cc3ccccc32)c1Br (stereo not shown) [Compound P-45, [4-(5-bromo-1-methyl-pyrazol-4-yl)-3,4-dihydro-1H-isoquinolin-2-yl]-[5-(2,4-difluorophenyl)isoxazol-3-yl]methanone]
≥ 80%: pest or weed control at 200 ppm (Phaeosphaeria nodorum) | inhibition of growth at 20 ppm [1] | inhibition of growth at 20 ppm (Mycosphaerella arachidis) | inhibition of growth at 20 ppm (Monographella nivalis) | pest or weed control at 200 ppm (Alternaria solani) | pest or weed control at 200 ppm (Pyrenophora teres) | inhibition of growth at 20 ppm (Botryotinia fuckeliana) | inhibition of growth at 20 ppm (Glomerella lagenarium)

COc1ccc2c(c1)CN(C(=O)c1cc(-c3ccc(F)cc3F)on1)CC2c1cnn(C)c1 (stereo not shown) [Compound P-51, [5-(2,4-difluorophenyl)isoxazol-3-yl]-[7-methoxy-4-(1-methylpyrazol-4-yl)-3,4-dihydro-1H-isoquinolin-2-yl]methanone]
≥ 80%: pest or weed control at 200 ppm (Phaeosphaeria nodorum) | inhibition of growth at 20 ppm [1] | inhibition of growth at 20 ppm (Mycosphaerella arachidis) | inhibition of growth at 20 ppm (Monographella nivalis) | pest or weed control at 200 ppm (Alternaria solani) | pest or weed control at 200 ppm (Pyrenophora teres) | inhibition of growth at 20 ppm (Glomerella lagenarium)

Cc1c(C2CN(C(=O)c3nnc(-c4ccc(F)cc4)s3)Cc3ccccc32)cnn1C (stereo not shown) [Compound P-63, [4-(1,5-dimethylpyrazol-4-yl)-3,4-dihydro-1H-isoquinolin-2-yl]-[5-(4-fluorophenyl)-1,3,4-thiadiazol-2-yl]methanone]
≥ 80%: pest or weed control at 200 ppm (Phaeosphaeria nodorum) | pest or weed control at 200 ppm [2] | inhibition of growth at 20 ppm [1] | inhibition of growth at 20 ppm (Mycosphaerella arachidis) | inhibition of growth at 20 ppm (Monographella nivalis) | pest or weed control at 200 ppm (Alternaria solani) | pest or weed control at 200 ppm (Pyrenophora teres) | inhibition of growth at 20 ppm (Botryotinia fuckeliana) | inhibition of growth at 20 ppm (Glomerella lagenarium)

Cc1c(C2CN(C(=O)c3cc(-c4ccccc4F)no3)Cc3ccccc32)cnn1C (stereo not shown) [Compound P-110, [4-(1,5-dimethylpyrazol-4-yl)-3,4-dihydro-1H-isoquinolin-2-yl]-[3-(2-fluorophenyl)isoxazol-5-yl]methanone]
≥ 80%: pest or weed control at 200 ppm (Phaeosphaeria nodorum) | inhibition of growth at 20 ppm [1] | inhibition of growth at 20 ppm (Mycosphaerella arachidis) | inhibition of growth at 20 ppm (Monographella nivalis) | pest or weed control at 200 ppm (Alternaria solani) | pest or weed control at 200 ppm (Pyrenophora teres) | inhibition of growth at 20 ppm (Botryotinia fuckeliana) | inhibition of growth at 20 ppm (Glomerella lagenarium)

Cc1nn(C)c(C)c1C1CN(C(=O)c2cc(-c3ccccc3F)on2)Cc2ccccc21 (stereo not shown) [Compound P-117, [5-(2-fluorophenyl)isoxazol-3-yl]-[4-(1,3,5-trimethylpyrazol-4-yl)-3,4-dihydro-1H-isoquinolin-2-yl]methanone]
≥ 80%: pest or weed control at 200 ppm (Phaeosphaeria nodorum) | inhibition of growth at 20 ppm [1] | inhibition of growth at 20 ppm (Mycosphaerella arachidis) | inhibition of growth at 20 ppm (Monographella nivalis) | pest or weed control at 200 ppm (Pyrenophora teres) | inhibition of growth at 20 ppm (Glomerella lagenarium)

Cc1c(C2CN(C(=O)c3cc(-c4ccc(F)cc4)on3)Cc3ccccc32)cnn1C (stereo not shown) [Compound P-120, [4-(1,5-dimethylpyrazol-4-yl)-3,4-dihydro-1H-isoquinolin-2-yl]-[5-(4-fluorophenyl)isoxazol-3-yl]methanone]
≥ 80%: pest or weed control at 200 ppm (Phaeosphaeria nodorum) | inhibition of growth at 20 ppm [1] | inhibition of growth at 20 ppm (Mycosphaerella arachidis) | inhibition of growth at 20 ppm (Monographella nivalis) | pest or weed control at 200 ppm (Alternaria solani) | pest or weed control at 200 ppm (Pyrenophora teres) | inhibition of growth at 20 ppm (Botryotinia fuckeliana) | inhibition of growth at 20 ppm (Glomerella lagenarium)

Cn1cc(C2CN(C(=O)c3cc(-c4c(F)cc(F)cc4F)on3)Cc3ccccc32)cn1 (stereo not shown) [Compound P-136, [4-(1-methylpyrazol-4-yl)-3,4-dihydro-1H-isoquinolin-2-yl]-[5-(2,4,6-trifluorophenyl)isoxazol-3-yl]methanone]
≥ 80%: pest or weed control at 200 ppm (Phaeosphaeria nodorum) | inhibition of growth at 20 ppm [1] | inhibition of growth at 20 ppm (Monographella nivalis) | pest or weed control at 200 ppm (Alternaria solani) | pest or weed control at 200 ppm (Pyrenophora teres)

CC1c2ccccc2C(c2cnn(C)c2)CN1C(=O)c1cc(-c2ccc(F)cc2F)on1 (stereo not shown) [Compound P-141, [5-(2,4-difluorophenyl)isoxazol-3-yl]-[1-methyl-4-(1-methylpyrazol-4-yl)-3,4-dihydro-1H-isoquinolin-2-yl]methanone]
≥ 80%: pest or weed control at 200 ppm (Phaeosphaeria nodorum) | pest or weed control at 200 ppm [2] | inhibition of growth at 20 ppm [1] | inhibition of growth at 20 ppm (Mycosphaerella arachidis) | inhibition of growth at 20 ppm (Monographella nivalis) | pest or weed control at 200 ppm (Alternaria solani) | pest or weed control at 200 ppm (Pyrenophora teres) | inhibition of growth at 20 ppm (Botryotinia fuckeliana) | inhibition of growth at 20 ppm (Glomerella lagenarium)

Cc1ccc2c(c1)C(C)(c1cnn(C)c1)CN(C(=O)c1cc(-c3ccc(F)cc3F)on1)C2C (stereo not shown) [Compound P-216, [5-(2,4-difluorophenyl)isoxazol-3-yl]-[1,4,6-trimethyl-4-(1-methylpyrazol-4-yl)-1,3-dihydroisoquinolin-2-yl]methanone]
≥ 80%: inhibition of growth at 20 ppm [1] | inhibition of growth at 20 ppm (Monographella nivalis) | pest or weed control at 200 ppm (Pyrenophora teres) | inhibition of growth at 20 ppm (Botryotinia fuckeliana) | inhibition of growth at 20 ppm (Glomerella lagenarium)

Cc1c(C2CN(C(=O)c3noc(-c4ccc(F)cc4F)n3)Cc3ccccc32)cnn1C (stereo not shown) [Compound P-228, [5-(2,4-difluorophenyl)-1,2,4-oxadiazol-3-yl]-[4-(1,5-dimethylpyrazol-4-yl)-3,4-dihydro-1H-isoquinolin-2-yl]methanone]
≥ 80%: inhibition of growth at 20 ppm [1] | inhibition of growth at 20 ppm (Mycosphaerella arachidis) | inhibition of growth at 20 ppm (Monographella nivalis) | pest or weed control at 200 ppm (Alternaria solani) | pest or weed control at 200 ppm (Pyrenophora teres) | inhibition of growth at 20 ppm (Glomerella lagenarium)
